Laboratory results taken from patent publication US11938129B2, “Methods and compositions for the treatment of vascular disease” (THE GENERAL HOSPITAL CORPORATION, priority 2018, dated 2024).
Entries after “also recorded” stand apart in the source; their conditions may differ.

How the values were obtained:
[1] = system: aortic aneurysm in Fbn1C1039G/+ mice; assay: experimental aortic aneurysm in Fbn1C1039G/+ mice: echocardiographic aortic dimensions; assay type: in vivo, mouse; conditions: Fbn1C1039G/+ mice treated from two to six months of life, drinking water
Text: Dimensions from each animal represent averages of measurements made on still frames in systole of the maximal internal diameter of the aortic valve annulus, aortic sinuses, sinotubular junction, or ascending aorta by a cardiologist blinded to genotype. The aorta was imaged using a standard parasternal long axis view. Based on historic controls, the mean diameter of the wild type aortic root at 4 months of life is 1.73+/-0.2 mm while in our disease model (Fbn1ci°[…]/+) the mean diameter is 2.15+/-0.3 mm. […] Nair hair removal cream was used on all mice the day prior to echocardiograms. All echocardiograms were performed on awake, unsedated mice using the Visualsonics Vevo imaging system and a 30 MHz transducer. All CT images were acquired using an Inveon small animal micro CT (Siemens Medical Solutions Inc., Malven, Pa.). All mice received intravenous iodinated contrast (Isovue-370, Bracco Diagnostic Inc.) at 20 pL/min during the scan. […] Images were visualized and analyzed in OsiriX software. Cohorts of 8-week-old wild-type or Fbn1cw3gGi+ mice were treated with oral administration in drinking water of either Losartan or GSK343 for 20 weeks (FIG. 5). […] Then 200 mL of drinking water was supplemented with 250 pL of GSK343 stock solution. […] Aortic dimensions were monitored monthly by echocardiograms as mentioned above.

VSMC phenotypic markers = assay: expression of VSMC phenotypic markers in aortas of treated Fbn1C1039G/+ mice; assay type: in vivo, mouse; conditions: aortas of Fbn1C1039G/+ mice treated from two to six months
Procedure: Total RNA was prepared from tissue or primary cells using RNeasy kit (Qiagen) following the manufacturer's protocol. The cDNA was prepared by reverse transcription, and expression of SMC contractile genes were analyzed by qRT-PCR on SYBR green system (Applied Biosystem, Foster city, CA). 50 pL of plasma from wild-type or Fbn1cl° 39G1+ mice were used to prepare total RNA as mentioned above. Expression results were analyzed by the ddCT method and GAPDH (encoding glyceraldehyde-3-phosphate dehydrogenase) was used as a housekeeping gene. Fold change were calculated by taking the average over all the control samples as the baseline. […] The supernatant was removed and the vesicular fraction was resuspended with 750 pL of TRizol reagent followed by RNA extraction using the RNeasy kit (Qiagen) according to the manufacturer's protocol. Cohorts of 8-week-old wild-type or Fbn1cw3gGi+ mice were treated with oral administration in drinking water of either Losartan or GSK343 for 20 weeks (FIG. 5). […] Then 200 mL of drinking water was supplemented with 250 pL of GSK343 stock solution. Control group for either drug treatment was given with equal volumes of sterile water. Bottles containing either losartan or GSKS343 were replaced with fresh water supplied with drugs every 3 days. For experiments described in FIG. 5A-5C, 16-week-old wild-type or Fbnicw3gGi+ mice were treated for 8 weeks and as described above. Additionally, a group of mice were given a combination of both losartan and GSK343 at the same concentrations as of other single drug treatments. Aortic dimensions were monitored monthly by echocardiograms as mentioned above.

[2] = system: aortic wall of Fbn1C1039G/+ mice; assay: histologic analysis of aortas of treated Fbn1C1039G/+ mice; assay type: in vivo, mouse; conditions: aortas of Fbn1C1039G/+ mice treated from two to six months
Procedure: (§1) Latex was injected into the left ventricular apex under low pressure until it was visible in the femoral artery. Animals were then fixed in Formalin (10%) for 24 hours before transfer to 70% ethanol for dissection and storage. Aortas were then removed from the animals or dissected in situ for photography prior to paraffinization and sectioning (10 pM). Slides were produced for tissue staining or stained with standard stains including H&E staining, collagen deposition (Trichrome Stain (Masson) Kit, Sigma, USA), elastin (Verhoeff-Van Gieson, Thermo Scientific, MI, USA) or F-actin (ActinGreen™ 488 ReadyProbes, ThermoFisher Scientific, USA) for quantitative analysis. Elastin integrity score was rated by blinded observers and graded on an arbitrary scale of 5 (indicating high quality elastic fiber) to 1 (indicating severe elastin fragmentation). For nuclear staining aortas from human and mice were cryosectioned using OCT standard protocol as described previously (Fischer et al., 2008). Cohorts of 8-week-old wild-type or Fbn1cw3gGi+ mice were treated with oral administration in drinking water of either Losartan or GSK343 for 20 weeks (FIG. 5). […] Then 200 mL of drinking water was supplemented with 250 pL of GSK343 stock solution. Control group for either drug treatment was given with equal volumes of sterile water. Bottles containing either losartan or GSKS343 were replaced with fresh water supplied with drugs every 3 days. For experiments described in FIG. 5A-5C, 16-week-old wild-type or Fbnicw3gGi+ mice were treated for 8 weeks and as described above. Additionally, a group of mice were given a combination of both losartan and GSK343 at the same concentrations as of other single drug treatments. Aortic dimensions were monitored monthly by echocardiograms as mentioned above.

H3K27me3 = H3K27me3 staining in aortas of treated Fbn1C1039G/+ mice; assay type: in vivo, mouse; conditions: compared to control or losartan treated mice
Procedure: as §1, with “Control group for either drug treatment was given with equal volumes of sterile water. Bottles containing either losartan or GSKS343 were replaced with fresh water supplied with drugs every 3 days. For experiments described in FIG. 5A-5C, 16-week-old wild-type or Fbnicw3gGi+ mice were treated for 8 weeks and as described above. Additionally, a group of mice were given a combination of both losartan and GSK343 at the same concentrations as of other single drug treatments.” left out

TGF-β signaling = assay: TGF-β activity by phosphorylation of Smad2 or Erk1 in aortas of treated mice; assay type: in vivo, mouse; conditions: aortic tissue of treated Fbn1C1039G/+ mice
Procedure: as §1, with “Control group for either drug treatment was given with equal volumes of sterile water. Bottles containing either losartan or GSKS343 were replaced with fresh water supplied with drugs every 3 days. For experiments described in FIG. 5A-5C, 16-week-old wild-type or Fbnicw3gGi+ mice were treated for 8 weeks and as described above. Additionally, a group of mice were given a combination of both losartan and GSK343 at the same concentrations as of other single drug treatments.” left out

SM22a = assay: immunostaining of SM22a protein in aortas of treated Fbn1C1039G/+ mice; assay type: in vivo, mouse; conditions: compared to control Fbn1C1039G/+ mice
Procedure: as §1, with “Control group for either drug treatment was given with equal volumes of sterile water. Bottles containing either losartan or GSKS343 were replaced with fresh water supplied with drugs every 3 days. For experiments described in FIG. 5A-5C, 16-week-old wild-type or Fbnicw3gGi+ mice were treated for 8 weeks and as described above. Additionally, a group of mice were given a combination of both losartan and GSK343 at the same concentrations as of other single drug treatments.” left out

[3] = system: neointimal formation in ligated carotid; assay: murine carotid artery ligation model: neointimal formation and stenosis (histology); assay type: in vivo, mouse; conditions: wild-type mice, left carotid ligation, 21 days; GSK343 in drinking water from 24 hrs before ligation for 3 weeks; GapmeR 15 nmol 24 hrs before and 7 days post-ligation
Procedure: (§2) All mice used in this study were cared for under strict compliance with the Partners Institutional Animal Care and Use Committee (IACUC), regulated by the United States Public Health Service (USPHS). Carotid ligations were performed in 10 week old mice. Briefly, animals were anesthetized using intraperitoneal ketamine/xylazine (80 and 12 mg/kg, respectively) followed by a small incision in the neck to expose the carotid artery. Then the left carotid was ligated at the carotid bifurcation level using a 8-0 silk suture. At 21 days mice were sacrificed and carotids were collected for histological analysis. Approximately 98% of wild type mice developed stenotic lesions. Mice that developed thrombosis of the ligated carotid were excluded from the study (−1¬2%). Malatl knockout mice were kindly provided by Dr. David Spector (Cold Spring Harbor, N.Y.). Hdac9 flox/flox/Talgn-cre mice were generated as previously reported (10). […]
(§3) Left and right carotids were cryosectioned using OCT standard protocol and sectioning. […] Slides 1, 5, 10, and 15 were H&E stained for quantification of neointima. For quantification of the neointima, internal and external elastic lamina perimeters and medial thickness from 4 quadrants were measured and averaged using Image J software from the National Institutes of Health (NIH). […]

a-SMA and SM22a = assay: immunofluorescence of contractile proteins in ligated carotids; assay type: in vivo, mouse; conditions: ligated carotids of treated mice
Procedure: All mice used in this study were cared for under strict compliance with the Partners Institutional Animal Care and Use Committee (IACUC), regulated by the United States Public Health Service (USPHS). Carotid ligations were performed in 10 week old mice. Briefly, animals were anesthetized using intraperitoneal ketamine/xylazine (80 and 12 mg/kg, respectively) followed by a small incision in the neck to expose the carotid artery. Then the left carotid was ligated at the carotid bifurcation level using a 8-0 silk suture. At 21 days mice were sacrificed and carotids were collected for histological analysis. Approximately 98% of wild type mice developed stenotic lesions. Mice that developed thrombosis of the ligated carotid were excluded from the study (−1¬2%). Malatl knockout mice were kindly provided by Dr. David Spector (Cold Spring Harbor, N.Y.). Hdac9 flox/flox/Talgn-cre mice were generated as previously reported (10). Ezh2 fl/fl/ (STOCK Ezh2tm2Sho/J) and Myh11-cre-GFP (B6.Cg-Tg(Myh11-cre,-EGFP)2Mik/J) were crossed to generate smooth muscle cell-Ezh2 deficient mice. All above mice and wild-type mice (C57BL/6J) were purchased from Jackson laboratory. For tissue analysis, animals were euthanized through inhalational isoflurane (Sigma, St, Louis, Mo.) prior to tissue collection. All carotid ligation (left carotid) procedures were performed at 10 weeks of age. All experiments were performed on male and female animals at a 1:1 ratio.
Left and right carotids were cryosectioned using OCT standard protocol and sectioning. The right carotid artery was unligated and served as an internal control. Neoinitima analysis was performed from hematoxylin and eosin (H & E) stained horizontal cross-sections embedded in Optimal Cutting Temperature compound (OCT). Briefly, the distal 0.2 mm of carotid from the ligation suture site were discarded followed by generation of 20 slides (10 pM). Slides 1, 5, 10, and 15 were H&E stained for quantification of neointima. For quantification of the neointima, internal and external elastic lamina perimeters and medial thickness from 4 quadrants were measured and averaged using Image J software from the National Institutes of Health (NIH). Slides 2-4, 6-9, and 11-14 were used for immunofluorescence staining.
Cohorts of 10-week-old wild-type mice were treated with oral administration in drinking water of GSK343 24 hrs before left carotid ligation and following treatment for 3 weeks. GSK343 inhibitor (25 mg) was dissolved in 1 mL of DMSO to obtain a stock solution of 46 mM. Then, 250 ml of drinking water was supplemented with 250 pl of GSK343 stock solution. Control group for was given with equal volumes of sterile water. Bottles containing GSK343 were replaced with fresh water supplied with drug every 3 days. […]

MMP2 and MMP9 activity = assay: in vivo MMP activity (MMPSense 750 FAST) after carotid ligation; set-up: species or system mouse; conditions: 24 h post injection, ligated mice
Procedure: Mice were tail vein injected with 600 uL of MMPSense 750 FAST, a near-infrared fluorescence sensor for MMP2 and MMP9 activity, (PerkinElmer, USA). Mice were sacrificed 24 h post injection and aortas were dissected and analyzed using a Kodak image station 4000MM Pro for macroscopic fluorescence reflectance molecular imaging.
Cohorts of 10-week-old wild-type mice were treated with oral administration in drinking water of GSK343 24 hrs before left carotid ligation and following treatment for 3 weeks. GSK343 inhibitor (25 mg) was dissolved in 1 mL of DMSO to obtain a stock solution of 46 mM. Then, 250 ml of drinking water was supplemented with 250 pl of GSK343 stock solution. Control group for was given with equal volumes of sterile water. Bottles containing GSK343 were replaced with fresh water supplied with drug every 3 days. For Malatl antisense LNA treatments, cohorts of 10-week-old wild-type mice were injected with 15 nmol in saline solution 24 hrs before left carotid ligation following by a second injection 7 days post-ligation.

PDGFR = assay: immunofluorescence of p-PDGFR in ligated carotid; assay type: in vivo, mouse; conditions: media and intima of carotid arteries
Procedure: as §2, §3

FAK = assay: immunofluorescence of p-FAK in ligated carotid; assay type: in vivo, mouse; conditions: media and intima of carotid arteries
Procedure: as §2, §3

Hdac9 = assay: immunofluorescence of Hdac9 in ligated carotid; assay type: in vivo, mouse; conditions: arterial media and intima of carotid arteries
Procedure: as §2, §3

Mmp9 = assay: immunofluorescence of Mmp9 in ligated carotid; assay type: in vivo, mouse; conditions: arterial media and intima of carotid arteries
Procedure: as §2, §3

## CCCCc1nc(Cl)c(CO)n1Cc1ccc(-c2ccccc2-c2nnn[n-]2)cc1.[K+] [Losartan]
[1]
  aortic dimensions: ability to improve aortic dimensions
VSMC phenotypic markers
  synthetic markers (Col1a1, Col3a1, Gja1, Mmp2): better ability to decrease
[2]
  aortic architecture and filamentous actin content: improvement
  elastin integrity: improve elastin integrity overall
H3K27me3
  H3K27me3 staining / aortic medial H3K27me3 modifications: did not
TGF-β signaling
  TGF-β activity as assessed by phosphorylation of Smad2 or Erk1 protein: reduced
SM22a
  SM22a protein expression (immunostaining of aortas): recovery of SM22a protein expression

## GapmeR-Malatl: GapmeR antisense oligonucleotide against MALAT1, GTCACAATGCATTCTA (SEQ ID NO: 1) (LNA gapmer, pattern not given here)
[3]
  extent of the stenotic response / neointimal formation: significant inhibition of neointimal formation; also recorded: dramatically improved the extent of the stenotic response
a-SMA and SM22a
  expression of contractile proteins such as a-SMA and SM22a: improved the expression of contractile proteins
MMP2 and MMP9 activity
  activity of MMPs: Inhibition of Mmp activity; also recorded: inhibited the activity of MMPs
PDGFR
  phosphorylation of PDGFR: dramatic reduction
FAK
  phosphorylation of FAK: dramatic reduction
Hdac9
  accumulation of Hdac9: decreased accumulation
Mmp9
  accumulation of Mmp9: decreased accumulation
